These are literature values, as cited in patent US20010014678A1, “Nicotine addiction treatment” (CARY MEDICAL CORPORATION, priority 1997, published 2001).

Turning to `CN1CCCC1c1cccnc1` (centres unmarked) [nicotine], the metabolic half-life entry (in vivo) is given as “roughly 2 hours”. Also, the “nicotine in venous blood” value (provided by one cigarette) was 5 to 30 ng/mL.
